Experimental data: patent US4695576A, “L-N-n-propylpipecolic acid-2,6-xylidide” (priority 1985, dated 1987)
“Also recorded” adds a separate entry of the source. Blank lines part the entries; values can stand above or below the compound they belong to.

Experiments:
[1] = tested on: peripheral nerve endings of the epidermis; assay: Intracutaneous wheals, infiltration anesthesia on forearms of man; assay type: in vivo; conditions: 12 healthy volunteers, pinprick
Text: By use of intracutaneous wheals it is possible to measure the analgesic effect of an anesthetic on the peripheral nerve endings of the epidermis.
This technique gives information about:
(1) The duration of anesthesia.
^1 Infiltration anesthesia on forearms of man. The test solutions wer
injected intracutaneously on the dorsum of the forearms of 12 healthy
volunteers, 20-25 years old. Three wheals were made on each arm in a
rotating system in a doublebind fashion. The local anesthetic effect was
tested using a pinprick technique. The "duration of anesthesia" was
defined as the time during which none out of six pinpricks into the wheal
was felt. The method has been described by Dhuner et al. (1972). […]

[2] = tested on: ulnar volar nerves; assay: Finger blockade, digital nerve blocks in man; assay type: in vivo; conditions: for Time of onset, finger blockade: time from injection to complete analgesia
Experimental: ^2 Digital nerve blocks in man. The test solutions were injected to
block the ulnar volar nerves on the 2nd and 4th fingers of the same
volunteers who had participated in the intracutaneous wheal tests
described above. The tests were carried out in a double blind fashion in
rotating system, so that each solution was used with equal frequency on
each of the blocked fingers. A total of for injections 1.0 ml per
injection, was done in each subject. One week later the procedure was
repeated in the same subjects using the remaining test solutions. This
method has been described by Dhuner et al. (1972) (for citation see Table
2 footnote 1). To measure the efficacy and duration of the blocks, the
individual fingers were pricked rapidly 10 times with a needle algesimete
and the number of painful pricks noted. Each finger was tested every five
minutes until complete recovery. The time of complete anesthesia has been
called "duration of anesthesia".
*i.e. the time from injection to complete analgesia?
**i.e. the number of successful anesthesias of total number of
anesthesias performed (no anesthesia is possible if the ulnar volar nerve
are not contacted by the anesthetic).

[3] = tested on: skin; assay: Skin temperature measurements within intracutaneous wheals; assay type: in vivo, man; conditions: for Temperature Difference (T1 wheal vs T2 controls) / T1 Intracutaneous Wheal temperature: Conc. 0.25%, HCl-salt, 10 minutes after injection; for T1 Intracutaneous Wheal temperature: mean of 6 wheals; for effect on temperature over the wheal: comparison with lidocaine + adrenaline
Experimental: The mean value of 6 wheals for each substance forms the basis for the values. The control values, however, represent the mean value obtained from 4 different sites measured outside the wheals 90 degrees apart and 2 centimeters from the wheal's center.
In the temperature measurements, an Oriel temperature apparatus* has been used. This is battery driven and is connected to a detector (diameter, 2.5 mm) and has an accuracy of ±0.1° C. The temperature of the skin is measured by pressing the detector against the skin with a pressure of 100 grams. It is retained against the skin until a constant temperature is obtained.
In Table 4, T1 is the measurement obtained at the center of the wheal, and T2 is the average of four measurements taken 90 degrees apart outside of the wheal and within 2 centimeters of the wheal's center.

[4] = tested on: tissue; assay: Tissue toxicity limits (Trypan blue test, threshold of tissue irritancy); assay type: in vivo; conditions: in vivo
Text: The toxicity of the homologous series of N-alkylpipecolic acid-2,6-xylidides increases step wise and quickly with the lengthening of the alkyl chain. This is manifest from Table 1 set forth below, which compares racemic mixtures of alkyl homologues having from 1 to 5 carbon atoms.
*Trypan blue test; Hoppe et al. (1950), 39, 147-151 "Use of Trypan Blue
and Rabbit Eye Tests For Irritation", J. Amer. Pharm. Assoc. (Scient.
Ed.), the values are approximate threshold values of tissue irritancy.

[5] = Anesthetic activity/potency comparison; assay type: in vivo; conditions: comparison within homologous series
[6] = in vivo; conditions: mouse, iv, read-out: LD50 I.v. (intravenous)
[7] = tested on: guinea pig papillary muscle; assay: Force of contraction of guinea pig papillary muscle; assay type: cell-based; conditions: listed as LEA
Experimental: (§1) In order to initiate an investigation without the necessity to involve voltage-clamp of the calcium current, the preparations were subject to long depolarizing induced automaticity. If the cells are depolarized from about -50 to about -30 mV the automaticity is dependent on a transmembrane calcium current.
(§2) Guinea pig papillary tests were carried out according to the recommendation of the "Report of the Subcommittee on Cardiotoxicity of Local Anesthetics" (Leroy D. Vandam, M.D., chairman). […] Solutions maintained at 37° C.±0.5° continuously perfused the gap compartments. The rear chamber contained isotonic potassium chloride solution. The drugs were added to a Tris-Tyrode solution passing the tip of the muscle. […] It was adjusted to pH 7.4 with trismaleate and HCl before use and gassed with 100% oxygen. Isotonic sucrose solution isolated the rear from the tip to enable current- and voltage-clamping.
(§3) The force of contraction was measured with a strain gauge transducer before and after the addition of the test compounds to the medium. The percent reduction in maximum force of contraction from the control was calculated.

[8] = as above; assay type: cell-based; conditions: guinea pig, papillary muscle
Experimental: as §1, §2, §3

[9] = molecular target: T1, guinea-pig papillary muscle sodium channels (Cavia porcellus, UniProt H0V4Z8); assay: Action on guinea-pig papillary muscle sodium channels (Vmax, recovery from block); assay type: cell-based
T1 construct: Vmax of action potential as measure of sodium current
Text: Depression of cardiac conduction appears to be one of the primary mechanisms underlying local anesthetic cardiotoxicity. Depression of conduction by local anesthetics in both nerve and cardiac tissue results from a block of sodium channels. Furthermore, the degree of sodium channel block by local anesthetics is dependent upon the state of the sodium channel. […] Consequently, a block of sodium channels develops during the upstroke and plateau of the action potential and dissipates during the diastolic interval between beats. Since the effect of a local anesthetic is both state and time dependent, changes in both heart rate and diastolic membrane potential may alter drug action substantially.
Guinea pig papillary tests were carried out according to the recommendation of the "Report of the Subcommittee on Cardiotoxicity of Local Anesthetics" (Leroy D. Vandam, M.D., chairman). Guinea pig papillary muscle excised from the right ventricle were mounted in a single sucrose gap apparatus (Arlock & Katzune, 1985). Solutions maintained at 37° C.±0.5° continuously perfused the gap compartments. The rear chamber contained isotonic potassium chloride solution. The drugs were added to a Tris-Tyrode solution passing the tip of the muscle. The Tris-Tyrode solution contained (mM): NaCl, 145; KCl, 4; CaCl2, 1.2; MgCl2, 1.05; glucose, 5.5 Tris maleate, 5. It was adjusted to pH 7.4 with trismaleate and HCl before use and gassed with 100% oxygen. Isotonic sucrose solution isolated the rear from the tip to enable current- and voltage-clamping.
The muscles were depolarized with long current pulses (1500 msec). These current steps can induce automaticity or DIA (depolarization induced automaticity). The steps were adjusted so the preparations were depolarized to from -50 to -30 mV since that is in that range that calcium current conductance is initiated.
The results represent the mean from representative experiments. In the absence of drug, Vmax (maximum upstroke velocity of the action potential) recovers from inactivation with an exponential time constant of less that 30 msec at -90 mV (Gettes and Reuter, 1974). […] The time constant of this recovery process is different for channels blocked by different drugs.

[10] = tested on: pigs; assay: Intracoronary administration in anesthetized pigs; assay type: in vivo, pig; conditions: intracoronary
Experimental: Eight pigs weighing around 50 kg were anesthetized with a continuous infusion of pentobarbital at 600 mg/h. Ventilation was established via a tracheotomy with 30% oxygen in nitrogen and normoventilation by a Siemens-Elema Servoventilator 900B. The following catheters were inserted after cutdown: Left ventricular, aortic, pulmonary arterial, great cardiac venous, left anterior descending coronary, arterial and central venous. […] The corresponding doses for bupivaciane were 0.25, 0.5, 1, 2 and 4 mg and for LEA 0.33, 0.66, 1.33, 2.66 and 5.33 mg. The injection rate was adjusted according to the preinjection coronary blood flow. Each series of drug injections was preceded by a placebo infusion. Total hemodynamic and electrocardiographic recovery was allowed between doses and there was a one hour resting period between drugs.
Central pressures, left ventricular dP/dT and a complete chest lead ECG were recorded continuously. Cardiac output and great cardiac venous blood flow were determined before and directly after each dose of the local anesthetic agent.

Structure (SMILES): CCCN1CCCC[C@@H]1C(=O)Nc1c(C)cccc1C [3 D]
Analgesia-duration, intracutaneous wheals ([1]; Conc. 0.25%): 81 ± 14 min
Analgesia-duration, finger blockade ([2]; Concentration 0.25%): 175 ± 21 min
Frequency (successful anesthesias of total performed) ([2]; Concentration 0.25%): 7/8
Time of onset, finger blockade ([2]; Concentration 0.25%): 14 ± 3 min

Structure (SMILES): CCCN1CCCCC1C(=O)Nc1c(C)cccc1C (stereo not shown) [3 R, N--n-propylpipecolic acid 2,6-xylidide]
Analgesia-duration, intracutaneous wheals ([1]; Conc. 0.25%): 84 ± 15 min
Temperature Difference (T1 wheal vs T2 controls) [3]: -0.1 °C
T1 Intracutaneous Wheal temperature [3]: 33.1 °C
effect on temperature over the wheal [3]: practically no change in temperature
Analgesia-duration, finger blockade ([2]; Concentration 0.25%): 263 ± 31 min
Frequency (successful anesthesias of total performed) ([2]; Concentration 0.25%): 9/10
Time of onset, finger blockade ([2]; Concentration 0.25%): 10 ± 1 min
Tissue toxicity limits in % [4]: 1.5%
anesthetic effect [5]: so far below that of the racemic Bupivacaine

Structure (SMILES): CCCCN1CCCC[C@@H]1C(=O)Nc1c(C)cccc1C [4 D]
Analgesia-duration, intracutaneous wheals ([1]; Conc. 0.25%): 75 ± 11 min
Analgesia-duration, finger blockade ([2]; Concentration 0.25%): 243 ± 38 min
Frequency (successful anesthesias of total performed) ([2]; Concentration 0.25%): 14/20
Time of onset, finger blockade ([2]; Concentration 0.25%): 15 ± 4 min

Structure (SMILES): Cc1cccc(C)c1NC(=O)[C@@H]1CCCCN1C [1 L]
Analgesia-duration, intracutaneous wheals ([1]; Conc. 0.5%): 68 ± 11 min
Analgesia-duration, finger blockade ([2]; Concentration 1.0%): 124 ± 21 min
Frequency (successful anesthesias of total performed) ([2]; Concentration 1.0%): 11/12
Time of onset, finger blockade ([2]; Concentration 1.0%): 7 ± 3 min

Structure (SMILES): CCN1CCCCC1C(=O)Nc1c(C)cccc1C (stereo not shown) [2 R, N--ethylpipecolic acid-2,6-xylidide]
Analgesia-duration, finger blockade ([2]; Concentration 0.5%): 123 ± 19 min
Frequency (successful anesthesias of total performed) ([2]; Concentration 0.5%): 12/12
Time of onset, finger blockade ([2]; Concentration 0.5%): 10 ± 1 min
LD50 [6]: 21 mg/kg
Tissue toxicity limits in % [4]: 3.0%

Structure (SMILES): Cc1cccc(C)c1NC(=O)[C@H]1CCCCN1C [1 D]
Analgesia-duration, intracutaneous wheals ([1]; Conc. 0.5%): 53 ± 8 min
Analgesia-duration, finger blockade ([2]; Concentration 1.0%): 71 ± 13 min
Frequency (successful anesthesias of total performed) ([2]; Concentration 1.0%): 9/13
Time of onset, finger blockade ([2]; Concentration 1.0%): 7 ± 2 min

inhibition at 5 µM [8]: 13.8%
inhibition at 10 µM [8]: 9.6%
inhibition at 100 µM [8]: 8%
Vmax depression ([9]; 10^-4 M for a short period): very depressed
time to full recovery of Vmax ([9]; 10^-4 M, stimulus rate 1 Hz): 20 min
elimination from the tissue (washout) ([9]; 25 min. washout after 10^-4 M): readily eliminated from the tissue
recovery to 90% of drug-blocked channels ([9]; -90 mV): 2048 ms
sudden cardiac collapse [10]: not
Structure (SMILES): CCCN1CCCC[C@H]1C(=O)Nc1c(C)cccc1C [3 L, L-N-n-propylpipecolic acid-2,6-xylidide]
Analgesia-duration, intracutaneous wheals ([1]; Conc. 0.25%): 220 ± 23 min
effect on force of contraction/contractility [7]: only moderately diminished; also recorded: very mild depressant actions
attenuated excitability ([9]; 10^-4 M for a short period): no attenuated excitability could be detected
recovery from block ([9]; especially at hyperpolarized levels (-100--120 mV), listed as LEA): recovers faster; also recorded: considerably faster
Temperature Difference (T1 wheal vs T2 controls) [3]: -1.2 °C
T1 Intracutaneous Wheal temperature [3]: 30.0 °C
effect on temperature over the wheal [3]: lowers the temperature over its wheal to approximately the same extent as the combination of lidocaine with adrenaline
Analgesia-duration, finger blockade ([2]; Concentration 0.25%): 739 ± 46 min
Frequency (successful anesthesias of total performed) ([2]; Concentration 0.25%): 6/7
Time of onset, finger blockade ([2]; Concentration 0.25%): 12 ± 2 min
anesthetic effect [5]: optimal increase of anesthetic effects; also recorded: markedly superior
